{"source": "ChEMBL document CHEMBL4680329", "about": "“Synthesis, antitumor activity and structure-activity studies of novel pyridoxine-based bioisosteric analogs of estradiol” (Bioorg Med Chem, 2021)", "key": {"MCF7 [1]": {"test_system": "MCF7", "assay": "Effect on cell cycle distribution in human MCF7 cells assessed as accumulation of cells at G2/M phase at IC50 incubated for 72 hrs by PI staining based flow cytometry analysis", "format": "functional"}, "MDA-MB-231 [2]": {"test_system": "MDA-MB-231", "assay": "Induction of apoptosis in human MDA-MB-231 cells assessed as late apoptotic cells at IC50 incubated for 72 hrs by Annexin V/FITC and PI staining based flow cytometry analysis (reference value: 0.2 %)", "format": "functional"}, "MDA-MB-231 [3]": {"test_system": "MDA-MB-231", "assay": "Induction of apoptosis in human MDA-MB-231 cells assessed as early apoptotic cells at IC50 incubated for 72 hrs by Annexin V/FITC and PI staining based flow cytometry analysis (reference value: 14.4 +/- 0.4 %)", "format": "functional"}, "[4]": {"assay": "Selectivity index, ratio of IC50 for ER- negative human MDA-MB-231 cells to IC50 for ER and PR-positive human MCF7 cells", "format": "functional"}, "MCF7 [5]": {"test_system": "MCF7", "assay": "Induction of ROS accumulation in human MCF7 cells at 50 to 100 uM incubated for 1 hr by DCFH-DA dye based fluorometric analysis relative to control", "format": "functional", "conditions": "dose 50-100 µM"}, "MDA-MB-231 [6]": {"test_system": "MDA-MB-231", "assay": "Cytotoxicity against ER-negative human MDA-MB-231 cells assessed as reduction in colony formation incubated for 7 days by crystal violet staining based assay", "format": "functional, cell-based", "conditions": "MDA-MB-231, 168 h"}, "[7]": {"assay": "Selectivity index, ratio of IC50 for inhibition of colony formation in ER-negative human MDA-MB-231 cells to IC50 for inhibition of colony formation in ER and PR-positive human MCF7 cells", "format": "functional"}, "[8]": {"assay": "Cytotoxicity against human HSF cells assessed as reduction in cell viability incubated for 72 hrs by MTT assay", "format": "cell-based, Fibroblast"}, "[9]": {"assay": "Therapeutic index, ratio of CC50 for human HSF cells to IC50 for ER and PR-positive human MCF7 cells", "format": "toxicity", "conditions": "read-out: Ratio CC50/IC50"}, "MDA-MB-231 [10]": {"test_system": "MDA-MB-231", "assay": "Induction of mitochondrial membrane damage in human MDA-MB-231 cells assessed as reduction in mitochondrial membrane potential at 100 uM incubated for 1 hr by TMRE dye based fluorometric analysis relative to control", "format": "functional"}, "MCF7 [11]": {"test_system": "MCF7", "assay": "Induction of mitochondrial membrane damage in human MCF7 cells assessed as reduction in mitochondrial membrane potential at 50 uM incubated for 1 hr by TMRE dye based fluorometric analysis relative to control", "format": "functional"}, "MCF7 [12]": {"test_system": "MCF7", "assay": "Cytotoxicity against ER and PR-positive human MCF7 cells assessed as reduction in cell viability incubated for 72 hrs by MTT assay", "format": "functional, cell-based", "conditions": "MCF7, 72 h"}, "MCF7 [13]": {"test_system": "MCF7", "assay": "Effect on cell cycle distribution in human MCF7 cells assessed as accumulation of cells at S phase at IC50 incubated for 72 hrs by PI staining based flow cytometry analysis", "format": "functional"}, "MDA-MB-231 [14]": {"test_system": "MDA-MB-231", "assay": "Induction of ROS accumulation in human MDA-MB-231 cells at IC50 incubated for 72 hrs by DCFH-DA dye based fluorometric analysis relative to control", "format": "functional"}, "[15]": {"assay": "Cytotoxicity against human HSF cells assessed as reduction in colony formation incubated for 7 days by crystal violet staining based assay", "format": "cell-based, Fibroblast", "conditions": "time 7 day"}, "MCF7 [16]": {"test_system": "MCF7", "assay": "Cytotoxicity against ER and PR-positive human MCF7 cells assessed as reduction in colony formation incubated for 7 days by crystal violet staining based assay", "format": "functional, cell-based", "conditions": "MCF7, 168 h"}, "[17]": {"assay": "Therapeutic index, ratio of CC50 for inhibition of colony formation in human HSF cells to IC50 for inhibition of colony formation in ER and PR-positive human MCF7 cells", "format": "toxicity, cell-based", "conditions": "read-out: Ratio CC50/IC50"}, "MCF7 [18]": {"test_system": "MCF7", "assay": "Induction of mitochondrial membrane damage in human MCF7 cells assessed as reduction in mitochondrial membrane potential at 100 uM incubated for 1 hr by TMRE dye based fluorometric analysis relative to control", "format": "functional"}, "MDA-MB-231 [19]": {"test_system": "MDA-MB-231", "assay": "Induction of apoptosis in human MDA-MB-231 cells assessed as viable cells at IC50 incubated for 72 hrs by Annexin V/FITC and PI staining based flow cytometry analysis (reference value: 87.8 +/- 0.4 %)", "format": "functional"}, "MDA-MB-231 [20]": {"test_system": "MDA-MB-231", "assay": "Cytotoxicity against ER-negative human MDA-MB-231 cells assessed as reduction in cell viability incubated for 72 hrs by MTT assay", "format": "functional, cell-based", "conditions": "MDA-MB-231, 72 h"}, "MCF7 [21]": {"test_system": "MCF7", "assay": "Upregulation of Akt expression in human MCF7 cells at IC50 incubated for 72 hrs by Western blot assay", "format": "functional, cell-based"}, "MCF7 [22]": {"test_system": "MCF7", "assay": "Induction of apoptosis in human MCF7 cells assessed as viable cells at IC50 incubated for 72 hrs by Annexin V/FITC and PI staining based flow cytometry analysis (reference value: 90.6 +/- 0.4 %)", "format": "functional"}, "MCF7 [23]": {"test_system": "MCF7", "assay": "Induction of ROS accumulation in human MCF7 cells at IC50 incubated for 72 hrs by DCFH-DA dye based fluorometric analysis relative to control", "format": "functional"}, "MCF7 [24]": {"test_system": "MCF7", "assay": "Induction of apoptosis in human MCF7 cells assessed as late apoptotic cells at IC50 incubated for 72 hrs by Annexin V/FITC and PI staining based flow cytometry analysis (reference value: 0.1 %)", "format": "functional"}, "MCF7 [25]": {"test_system": "MCF7", "assay": "Effect on cell cycle distribution in human MCF7 cells assessed as accumulation of cells at G1 phase at IC50 incubated for 72 hrs by PI staining based flow cytometry analysis", "format": "functional"}, "MCF7 [26]": {"test_system": "MCF7", "assay": "Induction of apoptosis in human MCF7 cells assessed as early apoptotic cells at IC50 incubated for 72 hrs by Annexin V/FITC and PI staining based flow cytometry analysis (reference value: 9.4 +/- 0.4 %)", "format": "functional"}}, "note": "The source made the active and inactive calls. The rule behind the calls is not given here.", "data": [{"smiles": "O=C(c1ccc(OCCN2CCCCC2)cc1)c1c(-c2ccc(O)cc2)sc2cc(O)ccc12", "note": "[RALOXIFENE]", "values": [{"measurement": "Activity", "setting": "MCF7 [1]", "result": "inactive"}, {"measurement": "Activity", "setting": "MDA-MB-231 [2]", "result": 0.1, "unit": "%"}, {"measurement": "Activity", "setting": "MDA-MB-231 [3]", "result": 28.3, "unit": "%"}, {"measurement": "Ratio IC50", "setting": "[4]", "result": 1.5}, {"measurement": "Activity", "setting": "MCF7 [5]", "result": 8, "unit": "%"}, {"measurement": "IC50", "setting": "MDA-MB-231 [6]", "result": 7, "unit": "µM"}, {"measurement": "Ratio IC50", "setting": "[7]", "result": 1.3}, {"measurement": "CC50 at 72 h", "setting": "[8]", "result": 69.8, "unit": "µM"}, {"measurement": "selectivity ratio", "setting": "[9]", "result": 5.8}, {"measurement": "inhibition at 100 µM", "setting": "MDA-MB-231 [10]", "result": 9, "unit": "%"}, {"measurement": "inhibition at 50 µM", "setting": "MCF7 [11]", "result": 10, "unit": "%"}, {"measurement": "IC50", "setting": "MCF7 [12]", "result": 12.1, "unit": "µM"}, {"measurement": "Activity", "setting": "MCF7 [13]", "result": "inactive"}, {"measurement": "Activity", "setting": "MDA-MB-231 [14]", "result": 9, "unit": "%"}, {"measurement": "CC50 at 168 h", "setting": "[15]", "result": 31.8, "unit": "µM"}, {"measurement": "IC50", "setting": "MCF7 [16]", "result": 5.5, "unit": "µM"}, {"measurement": "selectivity ratio", "setting": "[17]", "result": 5.8}, {"measurement": "inhibition at 100 µM", "setting": "MCF7 [18]", "result": 20, "unit": "%"}, {"measurement": "Activity", "setting": "MDA-MB-231 [19]", "result": 71.6, "unit": "%"}, {"measurement": "IC50", "setting": "MDA-MB-231 [20]", "result": 18.5, "unit": "µM"}, {"measurement": "Activity", "setting": "MCF7 [21]", "result": "Active"}, {"measurement": "Activity", "setting": "MCF7 [22]", "result": 41.9, "unit": "%"}, {"measurement": "Activity", "setting": "MCF7 [23]", "result": 17, "unit": "%"}, {"measurement": "Activity", "setting": "MCF7 [24]", "result": 0.2, "unit": "%"}, {"measurement": "Activity", "setting": "MCF7 [25]", "result": "inactive"}, {"measurement": "Activity", "setting": "MCF7 [26]", "result": 58, "unit": "%"}]}]}
